# Reference: patent US8150136B2, “Image based quantitation of molecular translocation” (Amnis Corporation, priority 2005, dated 2012)
# Test system: NF-κB nuclear translocation in THP-1 cells
# Experiment: LPS-induced nuclear translocation of NF-κB in THP-1 cells, multispectral imaging flow cytometry (ImageStream), NF-κB/7-AAD Similarity
# Format: cell-based, human
# Description: Untreated (a) and LPS treated (b) THP-1 cells were prepared as described in FIG. 4 and imaged in flow using the ImageStream 100 platform. […] Each gated population has an associated image gallery that can be visually inspected. The image galleries here display the NF-κB image adjacent to a composite image (green NF-κB/red 7-ADD) for each object within a given population.
# In order to quantitate the extent of NF-κB nuclear translocation in A-549 cells treated with TNF-α/IL-β, the degree of pixel intensity between the NF-κB and nuclear images of cell within a masked region of interest was analyzed. The NF-κB image of a cell with a high degree of translocation will look qualitatively similar to the nuclear image of that cell, resulting in a high degree of correlation between the two images. In contrast, the NF-κB image of a cell without any translocation will have little signal in the nuclear space, resulting in an inverse correlation with the nuclear image. […] Two features were calculated, the correlation coefficient (ρ) and, in this case, similarity is calculated as a logarithmic transformation of ρ, which features are represented by the following formula, respectively: ρ(X,Y)=Cov(X,Y)/(σX σY) Similarity=ln(1+ρ)/(1−ρ) As set forth herein, ρ measures the degree to which the spatial distribution of intensities over two separate images is correlated, with a range from −1 (inverse correlation) to +1 (complete correlation). Here, similarity values range from −∞ to +∞, allowing standard statistical comparisons (means and standard deviations) between groups to be made. Histogram overlays of NF-κB/7-AAD correlation and similarity allows the differentiation of untreated (green) A-549 cells from TNF-α/IL-1β treated (red) A-549 cells. As described herein, the fidelity of these classifiers can be validated by inspection of the image galleries of the cells. Mask Determination
# By way of background and […], NF-κB resides predominantly in the cytoplasm in resting cells. Activating treatments (e.g., IL-1β/TNF-α or LPS) induce NF-κB translocation into the nucleus in responsive cell types. Thus, the ratio of nuclear to cytoplasmic NF-κB increases with LPS treatment. Similar to the A-549 cells, NF-κB is translocated from the cytoplasm to the nucleus when the non-adherent human monocyte cell line, THP-1, is exposed to lipopolysaccharide (LPS). […] A nuclear and NF-κB pixel signal correlation analysis CCF was used to quantitate the difference between untranslocated NF-κB and NF-κB translocated to the cell nucleus. The CCF distinguished location-specific (nuclear and cytoplasmic) quantitation of NF-κB to distinguish LPS-treated from untreated THP-1 cells. Thus, the methods of the present disclosure may also be used with non-adherent cells and cell lines.
# Human monocyte cell line THP-1, obtained from ATCC (Rockville, Md.), were maintained in RPMI 1640 (Gibco, Grand Island, N.Y.) containing 5% fetal bovine serum, 1 mM sodium pyruvate (Mediatech, Herndon, Va.), 100 μM nonessential amino acids, 100 U/ml penicillin, 100 μg/ml streptomycin, and 2 mM L-glutamine (BioWhittaker, Walkersville, Md.) in 5% CO2 atmosphere at 37° C. The density of exponentially growing cells was less than 3×10^5 cells per ml at the time of all treatments. To induce NF-κB translocation into the nucleus from the cytoplasm, cells were treated for 1 hr with LPS.
# The following is the experimental procedure for LPS-induced Nuclear Translocation of NF-κB in THP-1 cells. […]
substance,measurement,setting,value
Lipopolysaccharide [LPS],NF-κB/7-AAD Similarity value (median similarity value) of translocated cells,"LPS treated THP-1 cells, 'High Similarity' (translocated) gated population, untreated: 2.98 +/−0.35",3.35 +/−0.48
same,NF-κB/7-AAD Similarity value of untranslocated cells,"LPS treated THP-1 cells, 'Low Similarity' (untranslocated) gated population, untreated: −1.36 +/−0.84",−0.76 +/−0.64
same,percentage of Medium Similarity cells,"LPS treated THP-1 cells, diffuse NF-κB staining pattern, untreated 3.6%",27.6%
same,percentage of NF-κB-translocated cells,"LPS treated THP-1 cells, untreated 0.71%",44.6%
same,"nuclear localization of NF-κB by CCF, treated versus untreated cells","THP-1 cells, LPS-treated vs untreated",a quantifiable difference in the nuclear localization NF-κB is demonstrated
